Measurements reported in patent US20260191965A1 (priority 2022, published 2026).
Values after ≈ are worked out from the molar mass of the structure shown. Like-named read-outs stand apart in the source and are kept apart here.

Assays:
[1] = tested on: M. tuberculosis Erdman pFCA LuxAB; details: for reduction compared to the vehicle group: conjugate 100, rifampicin 10, metronidazole 200 mg/kg; for Log reduction compared to untreated group / Log10 CFU counts in the lungs, Average: QD for 12 days; for Log reduction compared to untreated group / Log10 CFU counts in the lungs, Mouse A / Log10 CFU counts in the lungs, Mouse B / Log10 CFU counts in the lungs, Mouse C / Log10 CFU counts in the lungs, Mouse D / Log10 CFU counts in the lungs, Mouse E / Log10 CFU counts in the lungs, Mouse F / Log10 CFU counts in the lungs, Average: conjugate 100, linezolid 100, PA-824 50, rifampicin 10, metronidazole 200 mg/kg; for Log10 CFU counts in the lungs, Mouse A / Log10 CFU counts in the lungs, Mouse B / Log10 CFU counts in the lungs, Mouse C / Log10 CFU counts in the lungs, Mouse D / Log10 CFU counts in the lungs, Mouse E / Log10 CFU counts in the lungs, Mouse F / Log10 CFU counts in the lungs, Average: day 21; for Log10 CFU counts in the lungs, Mouse A / Log10 CFU counts in the lungs, Mouse B / Log10 CFU counts in the lungs, Mouse C / Log10 CFU counts in the lungs, Mouse D / Log10 CFU counts in the lungs, Mouse E / Log10 CFU counts in the lungs, Mouse F: QD for 12 days from day 7; for Log10 CFU counts in the lungs, Average: group average, 6 mice
[2] = tested on: clinical isolates of Mycobacterium tuberculosis; assay: microbe, parasite or virus in culture; format: cell-based; details: for MIC: Mycobacterium tuberculosis
[3] = tested on: Mycobacterium tuberculosis H37Rv (ATCC 27294); format: cell-based; details: for Log reduction in CFU: vs drug-free control
[4] = 168 h, clinical isolate strain 1, air with 5% CO2, 7H9/10% OADC, 7 days
[5] = 168 h, clinical isolate strain 2, air with 5% CO2, 7H9/10% OADC, 7 days
[6] = 168 h, clinical isolate strain 3, air with 5% CO2, 7H9/10% OADC, 7 days
[7] = 168 h, clinical isolate strain 4, air with 5% CO2, 7H9/10% OADC, 7 days
[8] = 168 h, clinical isolate strain 5, air with 5% CO2, 7H9/10% OADC, 7 days
[9] = 168 h, clinical isolate strain 6, air with 5% CO2, 7H9/10% OADC, 7 days
[10] = 168 h, clinical isolate strain 7, air with 5% CO2, 7H9/10% OADC, 7 days
[11] = 168 h, clinical isolate strain 8, air with 5% CO2, 7H9/10% OADC, 7 days
[12] = 168 h, clinical isolate strain 9, air with 5% CO2, 7H9/10% OADC, 7 days
[13] = 168 h, clinical isolate strain 10, air with 5% CO2, 7H9/10% OADC, 7 days
[14] = 168 h, clinical isolate strain 11 (sensitive strain), air with 5% CO2, 7H9/10% OADC, 7 days
[15] = read-out: MIC values against sensitive tuberculosis strains, sensitive tuberculosis strains, air containing 5% CO2

SMILES: CO[C@H]1/C=C/O[C@@]2(C)Oc3c(C)c(O)c4c(c3C2=O)C2=NC3(CCN(CCn5c([N+](=O)[O-])cnc5C)CC3)NC2=C(NC(=O)/C(C)=C\C=C\[C@H](C)[C@H](O)[C@@H](C)[C@@H](O)[C@@H](C)[C@H](OC(C)=O)[C@@H]1C)C4=O
- reduction compared to the pre-treatment ([1]; […], 100 mg/kg orally QD, 12 consecutive days): 0.69 log CFU
- reduction compared to the vehicle group ([1]; […], 12 consecutive days): 4 log CFU
- Log reduction compared to untreated group ([1]; […]): 4.18
- activity compared to vehicle, rifampicin, metronidazole, linezolid and PA-824 control groups ([1]; […], one-way ANOVA, 95% level of confidence): significantly superior
- Log10 CFU counts in the lungs, Mouse A [1]: 2.48 Log10 CFU
- Log10 CFU counts in the lungs, Mouse B [1]: 2.18 Log10 CFU
- Log10 CFU counts in the lungs, Mouse C [1]: 3.02 Log10 CFU
- Log10 CFU counts in the lungs, Mouse D [1]: 2.48 Log10 CFU
- Log10 CFU counts in the lungs, Mouse E [1]: 3.80 Log10 CFU
- Log10 CFU counts in the lungs, Mouse F [1]: 2.18 Log10 CFU
- Log10 CFU counts in the lungs, Average [1]: 2.69 Log10 CFU
- drug-related tolerance issues ([1]; mice, after 12 consecutive days of administration, 100 mg/kg QD): no drug-related tolerance issues were observed
- MIC [2, 4]: 2 µg/mL (≈ 2.12 µM)
- MIC [2, 5]: 0.5 µg/mL (≈ 0.53 µM)
- MIC [2, 6]: 2 µg/mL (≈ 2.12 µM)
- MIC [2, 7]: 2 µg/mL (≈ 2.12 µM)
- MIC [2, 8]: 2 µg/mL (≈ 2.12 µM)
- MIC [2, 9]: 1 µg/mL (≈ 1.06 µM)
- MIC [2, 10]: 2 µg/mL (≈ 2.12 µM)
- MIC [2, 11]: 2 µg/mL (≈ 2.12 µM)
- MIC [2, 12]: 0.5 µg/mL (≈ 0.53 µM)
- MIC [2, 13]: 1 µg/mL (≈ 1.06 µM)
- MIC [2, 14]: 0.016 µg/mL (≈ 0.0169 µM)
- MIC [2, 15]: 0.016 µg/mL (≈ 0.0169 µM)
- reduction of bacterial count of wild-type Mycobacterium Tuberculosis compared to the drug-free group ([3]; at both tested concentrations (20 μg/mL and 5 μg/mL)): > 4 Log10 CFU
- CFU/mL ([3]; concentration 5 μg/mL): 9.75E+03 CFU/mL
- Log reduction in CFU ([3]; concentration 5 μg/mL): 4.39
- CFU/mL ([3]; concentration 20 μg/mL): 2.50E+03 CFU/mL
- Log reduction in CFU ([3]; concentration 20 μg/mL): 4.98

SMILES: NNC(=O)c1ccncc1 [Isoniazid, isoniazid]
- MIC [2, 4]: > 40 µg/mL
- MIC [2, 5]: 2.5 µg/mL (≈ 18.2 µM)
- MIC [2, 6]: 10 µg/mL (≈ 72.9 µM)
- MIC [2, 7]: > 40 µg/mL
- MIC [2, 8]: 5 µg/mL (≈ 36.5 µM)
- MIC [2, 9]: 0.313 µg/mL (≈ 2.28 µM)
- MIC [2, 10]: 5 µg/mL (≈ 36.5 µM)
- MIC [2, 11]: 2.5 µg/mL (≈ 18.2 µM)
- MIC [2, 12]: > 40 µg/mL
- MIC [2, 13]: > 40 µg/mL
- MIC [2, 14]: 0.039 µg/mL (≈ 0.284 µM)
- MIC [2, 15]: 0.039 µg/mL (≈ 0.284 µM)
- CFU/mL ([3]; concentration 10 μg/mL): 3.14E+08 CFU/mL
- Log reduction in CFU ([3]; concentration 10 μg/mL): −0.12

SMILES: Cc1ncc([N+](=O)[O-])n1CCO [Metronidazole, metronidazole]
- reduction compared to the vehicle group ([1]; […], 12 consecutive days): 0.09 log CFU
- Log reduction compared to untreated group ([1]; […]): 0.02
- Log10 CFU counts in the lungs, Mouse A [1]: 6.95 Log10 CFU
- Log10 CFU counts in the lungs, Mouse B [1]: 6.95 Log10 CFU
- Log10 CFU counts in the lungs, Mouse C [1]: 6.15 Log10 CFU
- Log10 CFU counts in the lungs, Mouse D [1]: 6.60 Log10 CFU
- Log10 CFU counts in the lungs, Mouse E [1]: 7.11 Log10 CFU
- Log10 CFU counts in the lungs, Mouse F [1]: 7.31 Log10 CFU
- Log10 CFU counts in the lungs, Average [1]: 6.85 Log10 CFU
- MIC [2, 4]: > 32 µg/mL
- MIC [2, 5]: > 32 µg/mL
- MIC [2, 6]: > 32 µg/mL
- MIC [2, 7]: > 32 µg/mL
- MIC [2, 8]: > 32 µg/mL
- MIC [2, 9]: > 32 µg/mL
- MIC [2, 10]: > 32 µg/mL
- MIC [2, 11]: > 32 µg/mL
- MIC [2, 12]: > 32 µg/mL
- MIC [2, 13]: > 32 µg/mL
- MIC [2, 14]: > 32 µg/mL
- activity against the tested strains ([2]; all tested strains, air containing 5% CO2): no activity
- CFU/mL ([3]; concentration 20 μg/mL): 1.66E+08 CFU/mL
- Log reduction in CFU ([3]; concentration 20 μg/mL): 0.16
- CFU/mL ([3]; concentration 50 μg/mL): 1.02E+08 CFU/mL
- Log reduction in CFU ([3]; concentration 50 μg/mL): 0.37

SMILES: O=[N+]([O-])c1cn2c(n1)OC[C@@H](OCc1ccc(OC(F)(F)F)cc1)C2 [PA-824]
- Log reduction compared to untreated group ([1]; […]): 3.04
- Log10 CFU counts in the lungs, Mouse A [1]: 3.29 Log10 CFU
- Log10 CFU counts in the lungs, Mouse B [1]: 4.00 Log10 CFU
- Log10 CFU counts in the lungs, Mouse C [1]: 4.06 Log10 CFU
- Log10 CFU counts in the lungs, Mouse D [1]: 3.65 Log10 CFU
- Log10 CFU counts in the lungs, Mouse E [1]: 4.01 Log10 CFU
- Log10 CFU counts in the lungs, Mouse F [1]: 3.97 Log10 CFU
- Log10 CFU counts in the lungs, Average [1]: 3.83 Log10 CFU

SMILES: CO[C@H]1/C=C/O[C@@]2(C)Oc3c(C)c(O)c4c(c3C2=O)C2=NC3(CCN(CC(C)C)CC3)NC2=C(NC(=O)/C(C)=C\C=C\[C@H](C)[C@H](O)[C@@H](C)[C@@H](O)[C@@H](C)[C@H](OC(C)=O)[C@@H]1C)C4=O [Rifabutin, rifabutin]
- CFU/mL ([3]; concentration 5 μg/mL): 9.77E+07 CFU/mL
- Log reduction in CFU ([3]; concentration 5 μg/mL): 0.39
- CFU/mL ([3]; concentration 20 μg/mL): 7.19E+06 CFU/mL
- Log reduction in CFU ([3]; concentration 20 μg/mL): 1.52

SMILES: CO[C@H]1/C=C/O[C@@]2(C)Oc3c(C)c(O)c4c(O)c(c(/C=N/N5CCN(C)CC5)c(O)c4c3C2=O)NC(=O)/C(C)=C\C=C\[C@H](C)[C@H](O)[C@@H](C)[C@@H](O)[C@@H](C)[C@H](OC(C)=O)[C@@H]1C [Rifampicin, rifampicin]
- reduction compared to the vehicle group ([1]; […], 12 consecutive days): 0.65 log CFU
- Log reduction compared to untreated group ([1]; […]): 0.58
- Log10 CFU counts in the lungs, Mouse A [1]: 6.29 Log10 CFU
- Log10 CFU counts in the lungs, Mouse B [1]: 6.55 Log10 CFU
- Log10 CFU counts in the lungs, Mouse C [1]: 6.66 Log10 CFU
- Log10 CFU counts in the lungs, Mouse D [1]: 6.24 Log10 CFU
- Log10 CFU counts in the lungs, Mouse E [1]: 5.52 Log10 CFU
- Log10 CFU counts in the lungs, Mouse F [1]: 6.46 Log10 CFU
- Log10 CFU counts in the lungs, Average [1]: 6.29 Log10 CFU
- MIC [2, 4]: > 40 µg/mL
- MIC [2, 5]: 5 µg/mL (≈ 6.08 µM)
- MIC [2, 6]: > 40 µg/mL
- MIC [2, 7]: > 40 µg/mL
- MIC [2, 8]: > 40 µg/mL
- MIC [2, 9]: > 40 µg/mL
- MIC [2, 10]: > 40 µg/mL
- MIC [2, 11]: > 40 µg/mL
- MIC [2, 12]: 20 µg/mL (≈ 24.3 µM)
- MIC [2, 13]: 40 µg/mL (≈ 48.6 µM)
- MIC [2, 14]: 0.039 µg/mL (≈ 0.0474 µM)
- MIC [2, 15]: 0.039 µg/mL (≈ 0.0474 µM)
- CFU/mL ([3]; concentration 5 μg/mL): 2.19E+07 CFU/mL
- Log reduction in CFU ([3]; concentration 5 μg/mL): 1.04
- CFU/mL ([3]; concentration 20 μg/mL): 1.23E+07 CFU/mL
- Log reduction in CFU ([3]; concentration 20 μg/mL): 1.29

SMILES: CO[C@H]1/C=C/O[C@@]2(C)Oc3c(C)c(O)c4c(O)c(c(/C=N/N5CCN(C6CCCC6)CC5)c(O)c4c3C2=O)NC(=O)/C(C)=C\C=C\[C@H](C)[C@H](O)[C@@H](C)[C@@H](O)[C@@H](C)[C@H](OC(C)=O)[C@@H]1C [Rifapentine, rifapentine]
- CFU/mL ([3]; concentration 5 μg/mL): 1.80E+07 CFU/mL
- Log reduction in CFU ([3]; concentration 5 μg/mL): 1.12
- CFU/mL ([3]; concentration 20 μg/mL): 1.91E+07 CFU/mL
- Log reduction in CFU ([3]; concentration 20 μg/mL): 1.1

SMILES: CC(=O)NC[C@H]1CN(c2ccc(N3CCOCC3)c(F)c2)C(=O)O1 [linezolid]
- Log reduction compared to untreated group ([1]; […]): 1.57
- Log10 CFU counts in the lungs, Mouse A [1]: 5.86 Log10 CFU
- Log10 CFU counts in the lungs, Mouse B [1]: 4.61 Log10 CFU
- Log10 CFU counts in the lungs, Mouse C [1]: 5.76 Log10 CFU
- Log10 CFU counts in the lungs, Mouse D [1]: 4.59 Log10 CFU
- Log10 CFU counts in the lungs, Mouse E [1]: 5.13 Log10 CFU
- Log10 CFU counts in the lungs, Average [1]: 5.30 Log10 CFU
